1 compound from paper PMC9332470, “Production and Selection of Antibody–Antigen Pairs for the Development of Immunoenzyme Assay and Lateral Flow Immunoassay Methods for Carbofuran and Its Analogues” (Biosensors, 2022) can be followed below.

In brackets after ≈: the same amount, converted by molar mass. A value given as a limit tells only on which side of the number the result lay.

This test concerns mAb 13C8. Put plainly: quantum dot-based LFIA (QD-LFIA) with mAb 13C8. The format is binding, BALB/c mice. The protocol:
One milliliter of QDs was added to 9 mL of MES (0.054 M at pH 6.0) and centrifuged at 10,956× g for 20 min. Then, the precipitate was resuspended in 10 mL of MES (0.05 M at pH 6.0). After dispersion by ultrasonication for 2 min, EDC (20 mg) and NHS (20 mg) were added, and the reaction mixture was incubated for 30 min, followed by centrifugation at 10,956× g for 20 min. The precipitate was resuspended in 10 mL of MES (0.05 M at pH 6.0). Then, 1 mg of the mAb dissolved in 10 mL MES (0.027 M at pH 8.0) was added to the QD mixture and shaken at 25 °C and 180 rpm for 90 min. After the reaction, 5 mL of MES (0.054 M at pH 6.0 containing 1.6% BSA, w/v) was added, and the mixture was shaken at 25 °C and 180 rpm for 40 min, followed by centrifugation at 10,956× g for 20 min. The precipitate was resuspended in 10 mL of PB (0.01 M at pH 6.0, containing 5% casein, 1% glucose, 1.5% alanine and 0.05% NaN3, w/v) and dispersed by ultrasonication for 2 min.
The conjugate pad (6 mm × 300 mm) was pretreated with PBS (containing 0.5% Triton X-100, 0.5% alanine and 0.05% NaN3, w/v). Then, 1 mL of the mAb–QD conjugate was sprayed onto the pretreated conjugate pad at a flow rate of 10 μL/cm, and the pad was dried at 37 °C for 2 h. Other applied protocols were similar to those mentioned above.
Taking the logarithm of the carbofuran concentration as the abscissa and (B/B0)% as the ordinate, the standard curves for ELISA and QD-LFIA were obtained based on the Morgan–Mercer–Flodin (MMF) model, which were fitted by CurveExpert 1.4.0 software (https://www.curveexpert.net, accessed on 15 July 2022). For the ELISA method, B and B0 are the absorbance of the sample well and blank well, respectively. For the QD-LFIA method, B and B0 are the T/C (fluorescence intensity of the test line/fluorescence intensity of the control line) of the sample and blank control, respectively.
The inhibition ratio (I%) was calculated as (B0-B)/B0 × 100%. IC50 is the concentration of the carbofuran at an I% of 50%, and the limit of detection (LOD) was determined as the concentration showing 10% of inhibition.
The cross-reactivities (CRs) of benfuracarb, carbosulfan, 3-hydroxy-carbofuran, metolcarb, carbaryl, isoprocarb and aldicarb with carbofuran were assessed by ELISA and QD-LFIA. CR was calculated as CR (%) = [IC50 (carbofuran)/IC50 (analogues)] × 100%.
Then, to prepare QD-LFIA test strips, DDB-BSA (40 μg/mL), DDB-OVA (50 μg/mL), MDA-BSA (35 μg/mL) and MDA-OVA (30 μg/mL) were dispensed onto the NC membrane, and antibody 13C8 was conjugated to the QDs. Carbofuran standards (0, 0.05, 0.15, 0.45, 1.35 and 4.05 ng/mL) were detected to obtain a standard curve, and the IC50 was calculated. […] In LFIA, carbofuran in solution competed with the coating antigen on the NC membrane for antibody 13C8 conjugated to the QDs.
A standard curve was developed with the inhibition ratio (B/B0) versus the logarithm of the concentration of carbofuran.

`CNC(=O)Oc1cccc2c1OC(C)(C)C2` [carbofuran]: the “CR (%) (QD-LFIA)” value (CR = IC50(carbofuran)/IC50(analogue) x 100%, QD-LFIA with mAb 13C8) was found to be 100.0%. Besides, the “IC50 (QD-LFIA)” value reads like this: (antibody 13C8, antigen DDB-BSA (40 μg/mL) on NC membrane) more than 1000 ng/mL; (antibody 13C8, antigen DDB-OVA (50 μg/mL) on NC membrane) more than 1000 ng/mL; (antibody 13C8, antigen MDA-BSA (35 μg/mL) on NC membrane) 0.68 ± 0.03 ng/mL (≈ 3.07 nM); (antibody 13C8, antigen MDA-OVA (30 μg/mL) on NC membrane) 0.66 ± 0.03 ng/mL (≈ 2.98 nM); (optimized QD-LFIA, mAb 13C8-QD, T line antigen 30 μg/mL, given as MDA-BSA and MDA-OVA) 0.67 ± 0.08 ng/mL (≈ 3.03 nM). Moreover, under “concentration showing 10% of inhibition”, the “detection limit (QD-LFIA)” value came to 0.04 ng/mL. Besides, for the setting “homologous coating antigens DDB-BSA and DDB-OVA”, the “reaction of QD-LFIA test strips” value is listed as “almost no reaction”. For the same compound, the “working range (QD-LFIA)” value (optimized QD-LFIA) fell in the range of 0.04 to 4.21 ng/mL. Moreover, where the note is “span over MDA-BSA and MDA-OVA”, the “IC50 of QD-LFIA with heterologous coating antigens” value is recorded as 0.66–0.68 ng/mL.
